In patent publication US20220184071A1, “GEPOTIDACIN FOR USE IN THE TREATMENT OF BACTERIAL URINARY TRACT INFECTIONS” (GlaxoSmithKline Intellectual Property Development Limited, priority 2019, published 2022):
≈ marks a conversion by molar mass, not a printed value. Entries after “also recorded” stand apart in the source; their conditions may differ. Where two headings read alike, the source gives them in different places.

Assays:
[1] = MIC by CLSI broth microdilution, Example 1 Method 1, gram-negative aerobic organisms; type: cell-based; conditions: at least one strain of every organism listed; salt of gepotidacin (such as mesylate salt)
Experimental: Antimicrobial activity was determined by broth microdilution using the CLSI recommended procedure.

[2] = Phase IIa safety and tolerability; type: in vivo, human
Experimental: This phase IIa single center study evaluated the safety, tolerability, pharmacokinetics, and efficacy of oral gepotidacin 1500 mg BID for 5 days in female subjects with acute cystitis. Clean catch mid-stream urine specimens were obtained for quantitative culture by standard methods. Urine samples were taken from all participants pre-treatment (baseline) and at all post-baseline visits. All urine samples were sent to a central laboratory (PPD Global Clinical Laboratories, Highland Heights, Ky., USA) for Gram stain, quantitative culture, pathogen identification and susceptibility testing. See FIG. 1 for participant disposition and study outline.
Serial blood and urine PK sampling were performed for the first dose of study treatment on Day 1 and for the time-matched dose on Day 4. Participants took all doses of gepotidacin with food and remained in the clinic to complete a total of 10 doses. Participants were instructed to return for the TOC (Day 10 to 13) and Follow-up (Day 28±3) Visits.

[3] = test system: S. lugdenensis, S. agalactiae, Streptococcus group G and Streptococcus group F; test: MIC by CLSI broth microdilution, Example 5 second study; type: cell-based; conditions: at least one strain of every organism listed
Description: A second study tested gepotidacin by CLSI broth microdilution against bacterial isolates collected from patients with acute bacterial skin and soft tissue infections between 2013-2014.
Amoxicillin/clavulanic acid, linezolid, fusidic acid, ceftriaxone, ceftaroline, vancomycin, penicillin, quinupristin/dalfopristin, erythromycin, clindamycin, meropenem, tetracycline, chloramphenicol, flucloxacillin, telavancin, daptomycin, trimethoprim/sulfamethoxazole, gentamicin, levofloxacin, tigecycline and cefuroxime were included as comparators. MICs were determined by broth microdilution according to CLSI methods.
In addition, MICs were determined by broth microdilution according CLSI methods and all the comparators from the list above were evaluated against gram-positive aerobe organisms selected from S. lugdenensis, S. agalactiae, Streptococcus group G and Streptococcus group F.

[4] = test system: Staphylococcus epidermidis; test: MIC by CLSI broth microdilution in CAMHB and urine, Example 5 Method 2; type: cell-based; conditions: for Mean MIC: n = 4; for MIC: Staphylococcus epidermidis
Experimental: The compounds were tested in serial two-fold dilutions and the minimum inhibitory concentration (MIC) was determined as the lowest concentration of the compound that inhibited visible growth.
In particular, gepotidacin was tested against 4 strains of Staphylococcus epidermidis from the collection of isolates at Laboratory Specialists, Inc., Westlake, Ohio.
Levofloxacin was included as the comparator in the study to determine the effect of urine on the in vitro activity of gepotidacin against Staphylococcus epidermidis. MICs were determined by broth microdilution according CLSI methods.
The data shown in the table below are results from an in vitro study conducted with the same S. epidermidis isolates described above, to determine the effect of urine on the in vitro activity of gepotidacin and levofloxacin against S. epidermidis. Study strains were tested for MICs according to reference CLSI broth microdilution method using cation-adjusted Mueller Hinton Broth (CAMHB) and with the addition of 25%, 50% and 100% urine (not pH adjusted, pH 6.42) and 100% urine (pH adjusted, 7.31 and 8.07).

[5] = test system: Bacteroides caccae; test: MIC by agar dilution, drug-resistant isolates; type: cell-based
Experimental: (§1) Antimicrobial activity was determined by agar dilution using the Clinical and Laboratory Standards Institute (CLSI) recommended procedure.
(§2) The compounds were tested in serial two-fold dilutions and the minimum inhibitory concentration (MIC) was determined as the lowest concentration of the compound that inhibited visible growth. Gepotidacin was tested against 333 gram-negative anaerobic and 203 gram-positive anaerobic isolates collected from clinical samples in North America and Europe from 2000 to 2017; the majority collected from 2013 to 2016.
(§3) Additional analysis was performed from the results of the study described in Method 1 above, to determine the in vitro activity of gepotidacin against gram-negative and gram-positive anaerobic organisms with resistance to ceftriaxone, clindamycin, imipenem, metronidazole, moxifloxacin and piperacillin/tazobactam.

[6] = test system: Bacteroides ovatus; test: MIC by agar dilution, drug-resistant isolates; type: cell-based
Experimental: as §1, §2, §3

[7] = test system: Bacteroides vulgatus; test: MIC by agar dilution, drug-resistant isolates; type: cell-based
Experimental: as §1, §2, §3

[8] = test system: Bifidobacterium breve; test: MIC by agar dilution, drug-resistant isolates; type: cell-based; conditions: moxifloxacin R; 1 isolate
Experimental: as §1, §2, §3

[9] = test system: Bifidobacterium pseudocatenulatum; test: MIC by agar dilution, drug-resistant isolates; type: cell-based; conditions: clindamycin R; 1 isolate
Experimental: as §1, §2, §3

[10] = test system: Eubacterium nodatum; test: MIC by agar dilution, drug-resistant isolates; type: cell-based; conditions: metronidazole R; 1 isolate
Experimental: as §1, §2, §3

[11] = test system: Lactobacillus gasseri; test: MIC by agar dilution, drug-resistant isolates; type: cell-based; conditions: clindamycin R; 2 isolates
Experimental: as §1, §2, §3

[12] = test system: Prevotella bivia; test: MIC by agar dilution, drug-resistant isolates; type: cell-based
Experimental: as §1, §2, §3

O=c1ccc2ncc(=O)n3c2n1C[C@H]3CN1CCC(NCc2cc3c(cn2)OCCC3)CC1 [gepotidacin, (2R)-2-({4-[(3,4-dihydro-2H-pyrano[2,3-c]pyridin-6-ylmethyl)amino]-1-piperidinyl}methyl)-1,2-dihydro-3H,8H-2a,5,8a-triazaacenaphthylene-3,8-dione]
MIC [1]: ≤ 8 µg/mL
Back pain, n (%) ([2]; N = 22): 2 (9)
Chest discomfort, n (%) ([2]; N = 22): 2 (9)
Gastrointestinal disorders, n (%) ([2]; N = 22): 21 (95)
General disorders and administration site conditions, n (%) ([2]; N = 22): 2 (9)
Headache, n (%) ([2]; N = 22): 5 (23)
Infections and infestations, n (%) ([2]; N = 22): 6 (27)
Nervous system disorders, n (%) ([2]; N = 22): 5 (23)
Viral upper respiratory tract infection, n (%) ([2]; N = 22): 2 (9)
Vomiting, n (%) ([2]; N = 22): 5 (23)
Vulvovaginal mycotic infection, n (%) ([2]; N = 22): 2 (9)
Any adverse event, n (%) ([2]; N = 22, 1500 mg BID 5 days): 21 (95)
Musculoskeletal and connective tissue disorders, n (%) ([2]; female, human, in vivo, 5 days): 3 (14)
safety laboratory parameters, vital signs, ECG ([2]; in vivo): no clinically relevant trends; also recorded: no clinically significant changes
withdrawals or study treatment discontinuations due to AEs ([2]; in vivo): No withdrawal due to AE; also recorded: no withdrawals or study treatment discontinuations due to AEs
Episodes of vomiting considered drug related ([2]; mild or moderate, not treatment limiting): 4 participants
intensity of GI AEs ([2]; onset at day 1, improving upon repeat dosing): mild or moderate
tolerability ([2]; oral 1500 mg BID for 5 days): tolerated with no dose-limiting AEs
MIC [3]: ≤ 2 µg/mL
MIC range ([4]; 2 isolates of methicillin-resistant S. epidermidis): 0.25 to 0.5 µg/mL
Mean Dilution Difference ([4]; 25% Urine (pH 7.09) vs CAMHB): −0.75
Mean difference ([4]; 25% Urine (pH 7.09) vs CAMHB): −0.17
N(%) ± 1 dilution ([4]; 25% Urine (pH 7.09) vs CAMHB): 4 (100%)
N(%) ± 2 dilution ([4]; 25% Urine (pH 7.09) vs CAMHB): 4 (100%)
Mean MIC ([4]; 25% Urine (pH 7.09)): 0.25 µg/mL
Mean Dilution Difference ([4]; 50% Urine (6.99) vs CAMHB): −1.01
Mean difference ([4]; 50% Urine (6.99) vs CAMHB): −0.21
N(%) ± 1 dilution ([4]; 50% Urine (6.99) vs CAMHB): 4 (100%)
N(%) ± 2 dilution ([4]; 50% Urine (6.99) vs CAMHB): 4 (100%)
Mean MIC ([4]; 50% Urine (6.99)): 0.21 µg/mL
Mean Dilution Difference ([4]; 100% Urine (pH 6.42) vs CAMHB): −0.26
Mean difference ([4]; 100% Urine (pH 6.42) vs CAMHB): −0.07
N(%) ± 1 dilution ([4]; 100% Urine (pH 6.42) vs CAMHB): 4 (100%)
N(%) ± 2 dilution ([4]; 100% Urine (pH 6.42) vs CAMHB): 4 (100%)
Mean MIC ([4]; 100% Urine (pH 6.42)): 0.35 µg/mL
Mean Dilution Difference ([4]; 100% Urine (pH 7.31) vs CAMHB): 0.25
Mean difference ([4]; 100% Urine (pH 7.31) vs CAMHB): 0.08
N(%) ± 1 dilution ([4]; 100% Urine (pH 7.31) vs CAMHB): 4 (100%)
N(%) ± 2 dilution ([4]; 100% Urine (pH 7.31) vs CAMHB): 4 (100%)
Mean MIC ([4]; 100% Urine (pH 7.31)): 0.5 µg/mL
Mean Dilution Difference ([4]; 100% Urine (pH 8.07) vs CAMHB): 0.00
Mean difference ([4]; 100% Urine (pH 8.07) vs CAMHB): 0.00
N(%) ± 1 dilution ([4]; 100% Urine (pH 8.07) vs CAMHB): 4 (100%)
N(%) ± 2 dilution ([4]; 100% Urine (pH 8.07) vs CAMHB): 4 (100%)
Mean MIC ([4]; 100% Urine (pH 8.07)): 0.42 µg/mL
mean dilution differences (range) ([4]; 100% urine (conclusion)): 0 to −0.26
Mean MIC ([4]; CAMHB (ref. method, pH 7.2)): 0.42 µg/mL
MIC ([4]; 2 isolates of methicillin-susceptible S. epidermidis, read-out: MIC): 0.5 µg/mL (≈ 1.11 µM)
MIC ([4]; at least one strain of methicillin-susceptible or methicillin-resistant S. epidermidis, read-out: MIC): ≤ 0.5 µg/mL
MIC ([4]; read-out: MICs, methicillin-susceptible and methicillin-resistant isolates tested (conclusion), heading: MICs): < 0.5 µg/mL
mean dilution differences (range) ([4]; addition of urine vs CAMHB): 0 to −1.01
MIC fold greater than the levofloxacin MIC ([4]; each of the methicillin-resistant S. epidermidis): 4 fold
MIC fold greater than the levofloxacin MIC ([4]; methicillin-susceptible S. epidermidis): 2 fold
MIC ([5]; Bacteroides caccae, 1 drug-resistant isolate): 8 µg/mL (≈ 17.8 µM)
Gepotidacin MIC range ([5]; ceftriaxone R, 2 isolates): 0.05 to 8 µg/mL
Gepotidacin MIC range ([5]; clindamycin R, 1 isolate): 8 µg/mL
Gepotidacin MIC range ([5]; moxifloxacin R, 1 isolate): 0.5 µg/mL
Gepotidacin MIC range ([6]; ceftriaxone R, 8 isolates): 1 to 4 µg/mL
Gepotidacin MIC range ([6]; clindamycin R, 4 isolates): 1 to 4 µg/mL
Gepotidacin MIC range ([6]; moxifloxacin R, 2 isolates): 1 to 4 µg/mL
Gepotidacin MIC range ([7]; ceftriaxone R, 7 isolates): ≤0.015 to 4 µg/mL
Gepotidacin MIC range ([7]; clindamycin R, 4 isolates): ≤0.015 to 2 µg/mL
Gepotidacin MIC range ([7]; moxifloxacin R, 3 isolates): 0.25 to 4 µg/mL
Gepotidacin MIC range [8]: 0.5 µg/mL
Gepotidacin MIC range [9]: 4 µg/mL
Gepotidacin MIC range [10]: 0.125 µg/mL
Gepotidacin MIC range [11]: 0.5 to 1 µg/mL
Gepotidacin MIC range ([12]; ceftriaxone R, 1 isolate): 1 µg/mL
Gepotidacin MIC range ([12]; clindamycin R, 2 isolates): 0.5 to 4 µg/mL
Gepotidacin MIC range ([12]; moxifloxacin R, 2 isolates): 4 µg/mL
